Source: article PMC9911596 (Nature Communications, 2023)
Numbering of substitutions follows the chain as printed.

Tests used:
[1] = biological target: T1, Vtc1/Vtc3/Vtc4 complex (VTC complex) (Saccharomyces cerevisiae, UniProt P47075+Q02725); test: polyP synthesis, TBE-PAGE and DAPI; smFRET; type: biochemical; settings: activator; 15 mM ATP, 10 mM MgCl2, 1 mM MnCl2, 0.5 mM pyrophosphate, ATP regeneration, 27 °C, 4 h; up to 10 mM InsP6; SPX domain of Vtc4 as sensor
T1 construct: full-length subunits co-expressed in Expi293F; Vtc1 C-terminal HA, Vtc3 N-terminal 3xFlag, Vtc4 C-terminal 2xStrep; detergent-purified; 3:1:1 pentamer; with Vacuolar transporter chaperone complex subunit 1
T1 sequence (P47075 1-721): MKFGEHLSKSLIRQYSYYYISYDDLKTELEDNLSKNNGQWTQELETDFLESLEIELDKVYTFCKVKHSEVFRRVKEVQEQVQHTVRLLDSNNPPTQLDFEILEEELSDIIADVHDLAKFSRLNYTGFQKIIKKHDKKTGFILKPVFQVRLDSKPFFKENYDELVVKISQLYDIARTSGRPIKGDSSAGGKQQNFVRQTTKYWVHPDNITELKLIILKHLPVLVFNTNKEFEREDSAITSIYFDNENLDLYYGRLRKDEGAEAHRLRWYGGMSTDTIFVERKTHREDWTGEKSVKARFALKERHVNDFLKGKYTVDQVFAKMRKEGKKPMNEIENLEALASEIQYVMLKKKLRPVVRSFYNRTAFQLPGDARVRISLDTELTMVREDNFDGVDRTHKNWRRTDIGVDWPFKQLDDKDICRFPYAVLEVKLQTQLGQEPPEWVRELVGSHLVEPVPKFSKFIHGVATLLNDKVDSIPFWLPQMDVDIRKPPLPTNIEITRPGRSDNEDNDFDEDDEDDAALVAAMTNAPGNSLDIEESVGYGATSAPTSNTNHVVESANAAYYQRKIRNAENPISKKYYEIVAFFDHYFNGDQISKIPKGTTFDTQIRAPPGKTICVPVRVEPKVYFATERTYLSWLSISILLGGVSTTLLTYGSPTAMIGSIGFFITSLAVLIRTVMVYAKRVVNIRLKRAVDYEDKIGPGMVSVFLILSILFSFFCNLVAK
T1 sequence (Q02725 1-835): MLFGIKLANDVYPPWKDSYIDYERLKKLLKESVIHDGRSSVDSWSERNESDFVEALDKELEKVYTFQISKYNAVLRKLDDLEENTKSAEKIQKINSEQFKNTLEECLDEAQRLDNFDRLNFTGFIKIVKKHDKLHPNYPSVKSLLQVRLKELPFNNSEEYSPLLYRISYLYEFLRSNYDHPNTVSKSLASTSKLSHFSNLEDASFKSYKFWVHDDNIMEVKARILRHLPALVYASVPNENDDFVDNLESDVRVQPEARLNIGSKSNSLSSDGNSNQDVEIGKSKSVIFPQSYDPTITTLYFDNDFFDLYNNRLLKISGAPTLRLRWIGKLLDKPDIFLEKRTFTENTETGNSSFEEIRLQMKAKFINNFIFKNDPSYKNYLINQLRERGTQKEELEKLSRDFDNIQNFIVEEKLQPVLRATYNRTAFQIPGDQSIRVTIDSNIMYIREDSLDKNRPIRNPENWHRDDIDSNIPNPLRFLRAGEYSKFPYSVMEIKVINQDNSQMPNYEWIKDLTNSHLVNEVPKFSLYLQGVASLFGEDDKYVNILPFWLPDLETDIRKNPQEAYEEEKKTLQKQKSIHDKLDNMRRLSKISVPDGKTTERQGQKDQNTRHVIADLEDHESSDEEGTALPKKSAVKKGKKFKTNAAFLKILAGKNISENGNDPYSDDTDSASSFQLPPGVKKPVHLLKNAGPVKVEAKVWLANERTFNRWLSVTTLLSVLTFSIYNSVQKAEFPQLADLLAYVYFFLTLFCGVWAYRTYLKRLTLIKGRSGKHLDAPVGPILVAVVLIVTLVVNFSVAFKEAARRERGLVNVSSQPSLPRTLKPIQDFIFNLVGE
T1 sequence (P40046 2-129 partner): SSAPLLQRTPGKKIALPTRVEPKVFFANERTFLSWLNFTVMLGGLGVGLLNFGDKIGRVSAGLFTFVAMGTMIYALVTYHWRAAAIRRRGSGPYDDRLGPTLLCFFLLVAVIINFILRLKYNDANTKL

[2] = biological target: T2, Vtc1/Vtc3/Vtc4 complex (VTC complex) (Saccharomyces cerevisiae, UniProt P47075+Q02725, P47075:K129A/P47075:K132A/P47075:K136A); test: polyP synthesis, TBE-PAGE; type: biochemical; settings: activator; 15 mM ATP, 10 mM MgCl2, 1 mM MnCl2, 0.5 mM pyrophosphate, 27 °C, 4 h; SPX KSC mutant
T2 construct: full-length subunits co-expressed in Expi293F; Vtc1 C-terminal HA, Vtc3 N-terminal 3xFlag, Vtc4 C-terminal 2xStrep; detergent-purified; 3:1:1 pentamer; with Vacuolar transporter chaperone complex subunit 1
T2 sequence (P47075 1-721 K129A/K132A/K136A): T1 sequence (P47075 1-721) with K129A, K132A, K136A
T2 sequence (Q02725 1-835): T1 sequence (Q02725 1-835)
T2 sequence (P40046 2-129 partner): T1 sequence (P40046 2-129 partner)

Question: How did the “polyP synthesis, TBE-PAGE and DAPI; smFRET” value [1] turn out when `O=P(O)(O)O[C@H]1[C@H](OP(=O)(O)O)[C@@H](OP(=O)(O)O)[C@H](OP(=O)(O)O)[C@@H](OP(=O)(O)O)[C@H]1OP(=O)(O)O` [InsP6] was run?
Answer: harbors polyP polymerase activity and that synthesizes polyP in an InsP6 dose-dependent manner

Question: What about the “polyP synthesis, TBE-PAGE” value [2] of the same molecule?
Answer: both reduced InsP6-stimulated polyP synthesis
